Entries after “also recorded” stand apart in the source; their conditions may differ.
What was measured:
E. carinatus venom MP = E. carinatus venom MP inhibition; format: biochemical; details: 10 μM
M. fulvius venom sPLA2 = M. fulvius venom sPLA2 inhibition; format: biochemical; details: 10 μM
C. atrox venom MP = C. atrox venom MP inhibition; format: biochemical; details: 10 μM
[1] = test system: Snake venom metalloprotease, C. atrox and E. carinatus; experiment: Snake venom metalloprotease inhibition for C. atrox and E. carinatus; format: biochemical; details: 10 μM; range over both venoms
[2] = test system: whole bee (Apis mellifera) venom; experiment: Acute kidney injury in mice after whole bee venom (FIG. 8); format: in vivo, mouse; details: single dose Varespladib (LY315920) with bee venom, then oral methylvarespladib (LY333013) ad libitum in diet; kidneys examined 36 hours
bee venom sPLA2 [3] = target: T1, bee venom sPLA2 (Apis mellifera, UniProt P00630); experiment: biochemical; format: biochemical
T1 sequence (P00630 34-167 limits assumed): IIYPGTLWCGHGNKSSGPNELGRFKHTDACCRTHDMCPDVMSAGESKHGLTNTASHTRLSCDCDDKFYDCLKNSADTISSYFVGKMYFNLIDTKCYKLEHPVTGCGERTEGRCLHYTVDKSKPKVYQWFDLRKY

V. berus venom sPLA2 = experiment: sPLA2 chromogenic inhibition assay, V. berus venom; format: biochemical; details: chromogenic sPLA2 assay after 60 of incubation, read-out: IC50 for each venom inhibitor
C. atrox venom sPLA2 = experiment: sPLA2 chromogenic inhibition assay, C. atrox venom; format: biochemical; details: chromogenic sPLA2 assay after 60 of incubation, read-out: IC50 for each venom inhibitor
bee venom sPLA2 [4] = target: T1, bee venom sPLA2; details: cited from earlier work
[5] = test system: venous human blood incubated with M. Fulvius venom; experiment: Hemolysis of ex vivo whole human blood treated with M. Fulvius venom (FIG. 5A); format: cell-based; details: inhibitor 1 uM with or without soluble simvastatin 1 uM, 90 minutes
[6] = test system: histamine production or release in human blood; experiment: Plasma histamine in human blood; format: cell-based; details: human blood from a donor prone to LRR; 10 uM
Experimental: In this example, 3 cc human blood from a donor prone to LRR was collected and shipped to Quest on ice pursuant to Quest collection protocol 36586 and incubated with (a) Mannitol+Compound 4 (10 uM), (b) Varespladib (10 uM), or (c) Mannitol alone (excipient). Samples were processed for plasma histamine levels, compared with the Mannitol-only control.

[7] = test system: boomslang venom or bee venom; experiment: Venom-induced acute kidney injury in mice, boomslang venom or bee venom (FIG. 7); format: in vivo, mouse; details: sublethal envenomation; single dose at same time as venom; 24 hours
bee venom = experiment: Survival of mice envenomated with bee venom; format: in vivo, CD-1 mice; details: 5 mice; bee venom 5 mg/kg IV; 25 mg/kg varespladib SQ immediately after envenomation
[8] = test system: A. contortrix venom sPLA2; experiment: sPLA2 chromogenic inhibition assay, A. contortrix venom; format: biochemical; details: chromogenic sPLA2 assay after 60 of incubation, read-out: IC50 for each venom inhibitor
[9] = test system: C. terrificus venom sPLA2; experiment: sPLA2 chromogenic inhibition assay, C. terrificus venom; format: biochemical; details: chromogenic sPLA2 assay after 60 of incubation, read-out: IC50 for each venom inhibitor
V. russelli venom sPLA2 = experiment: sPLA2 chromogenic inhibition assay, V. russelli venom; format: biochemical; details: chromogenic sPLA2 assay after 60 of incubation, read-out: IC50 for each venom inhibitor
[10] = test system: C. adamanteus venom sPLA2; experiment: sPLA2 chromogenic inhibition assay, C. adamanteus venom; format: biochemical; details: chromogenic sPLA2 assay after 60 of incubation, read-out: IC50 for each venom inhibitor
[11] = test system: venous human blood incubated with Boomslang (Dispholidus typus) venom; experiment: Hemolysis of ex vivo human blood treated with Boomslang venom (FIG. 5B); format: cell-based; details: Compound 4 1 uM with or without soluble simvastatin 1 uM, 90 minutes

SMILES: CCC(C)(C)C(=O)O[C@H]1C[C@@H](C)C=C2C=C[C@H](C)[C@H](CC[C@@H]3C[C@@H](O)CC(=O)O3)[C@H]21 [SIMVASTATIN, Simvastatin]
- E. carinatus venom MP inhibition % effect (E. carinatus venom MP): −0.20 to 4.61%
- M. fulvius venom sPLA2 inhibition % effect (M. fulvius venom sPLA2): 16.41%
- C. atrox venom MP inhibition % effect (C. atrox venom MP): 4.03%
- Snake venom metalloprotease inhibition for C. atrox and E. carinatus [1]: −0.20 to 4.61%

SMILES: O=C(O)C[C@H](O)C[C@H](O)/C=C/c1c(C2CC2)nc2ccccc2c1-c1ccc(F)cc1 [ITAVASTATIN, Pitavastatin]
- E. carinatus venom MP inhibition % effect (E. carinatus venom MP): 0.48%
- C. atrox venom MP inhibition % effect (C. atrox venom MP): 5.09%
- Snake venom metalloprotease inhibition for C. atrox and E. carinatus [1]: 0.48 to 5.09%

SMILES: CCc1c(C(=O)C(N)=O)c2c(OCC(=O)O)cccc2n1Cc1ccccc1 [Varespladib, ((3-(2-Amino-1,2-dioxoethyl)-2-ethyl-1-(phenylmethyl)-1H-indol-4-yl)oxy)acetic acid]
- protection from AKI (pigment nephropathy, hyperemia) [2]: excellent protection from AKI
- IC50 (bee venom sPLA2 [3]): 12 to 18 µM
- higher IC50 against bee venom PLA2 as compared to snake venom PLA2 (bee venom sPLA2 [3]): 5-45,000 fold
- inhibitory activity in vitro against bee venom sPLA2 (bee venom sPLA2 [3]): very weak inhibitory activity; also recorded: not potent inhibitors
- IC50 (V. berus venom sPLA2): 0.8 nM
- IC50 (C. atrox venom sPLA2): 0.7 nM
- performance in vitro against bee venom sPLA2 in earlier studies (bee venom sPLA2 [4]): performed extremely poorly
- anti-hemolytic activity (Hgb absorption spectra) [5]: remained unchanged with the addition of statin
- Plasma Histamine [6]: 5.1 ng/mL
- signs of acute kidney injury (gross kidney appearance) [7]: minimal signs of acute kidney injury
- survival compared to controls (bee venom): uniformly prolonged survival
- IC50 [8]: 0.9 nM
- IC50 [9]: 21 nM
- IC50 (V. russelli venom sPLA2): 0.4 nM
- IC50 [10]: 0.8 nM

SMILES: CC[C@H](C)C(=O)O[C@H]1CCC=C2C=C[C@H](C)[C@H](CC[C@@H]3C[C@@H](O)CC(=O)O3)[C@H]21 [MEVASTATIN, Mevastatin]
- E. carinatus venom MP inhibition % effect (E. carinatus venom MP): −1.89 to 3.82%
- M. fulvius venom sPLA2 inhibition % effect (M. fulvius venom sPLA2): 16.29%
- C. atrox venom MP inhibition % effect (C. atrox venom MP): 7.17%
- Snake venom metalloprotease inhibition for C. atrox and E. carinatus [1]: −1.89 to 7.17%

SMILES: NC(=O)c1ccc(Cc2ccccc2)cc1-c1cccc(CCC(=O)O)c1 [Compound 4, 3-(5′-Benzyl-2′-carbamoylbiphenyl-3-yl) propanoic acid]
- IC50 (bee venom sPLA2 [3]): > 70 µM
- inhibitory activity in vitro against bee venom sPLA2 (bee venom sPLA2 [3]): very weak inhibitory activity; also recorded: virtually no effect
- IC50 (V. berus venom sPLA2): 170 nM
- anti-hemolytic activity [11]: anti-hemolytic activity
- Plasma Histamine [6]: 10.1 ng/mL
- signs of acute kidney injury (gross kidney appearance) [7]: comparably minimal signs of acute kidney injury
- IC50 [8]: 88 nM
- IC50 [9]: 670 nM

SMILES: CC[C@H](C)C(=O)O[C@H]1C[C@H](O)C=C2C=C[C@H](C)[C@H](CC[C@@H](O)C[C@@H](O)CC(=O)O)[C@H]21 [PRAVASTATIN, Pravastatin]
- E. carinatus venom MP inhibition % effect (E. carinatus venom MP): 4.02%
- M. fulvius venom sPLA2 inhibition % effect (M. fulvius venom sPLA2): 6.9%
- C. atrox venom MP inhibition % effect (C. atrox venom MP): 2.27%
- Snake venom metalloprotease inhibition for C. atrox and E. carinatus [1]: 2.27 to 4.02%

SMILES: CCc1c(C(=O)C(N)=O)c2c(OCC(=O)OC)cccc2n1Cc1ccccc1 [Me-Varespladib]
- inhibitory activity in vitro against bee venom sPLA2 (bee venom sPLA2 [3]): very weak inhibitory activity; also recorded: not potent inhibitors
- IC50 (V. berus venom sPLA2): 170 nM
- IC50 (C. atrox venom sPLA2): 200 nM
- performance in vitro against bee venom sPLA2 in earlier studies (bee venom sPLA2 [4]): performed extremely poorly
- IC50 [8]: 430 nM
- IC50 (V. russelli venom sPLA2): 80 nM
- IC50 [10]: 360 nM

SMILES: CC[C@H](C)C(=O)O[C@H]1C[C@@H](C)C=C2C=C[C@H](C)[C@H](CC[C@@H]3C[C@@H](O)CC(=O)O3)[C@H]21 [LOVASTATIN, Lovastatin]
- E. carinatus venom MP inhibition % effect (E. carinatus venom MP): −1.89%
- M. fulvius venom sPLA2 inhibition % effect (M. fulvius venom sPLA2): 11.09%

Reference: patent publication US12383531B2, “PLA2 inhibitors for treatment of pathological conditions caused by hymenoptera envenomation, such as hemolysis, cerebral edema, and acute kidney injury” (Ophirex, Inc., priority 2016, dated 2025)
